Entries after “also recorded” stand apart in the source; their conditions may differ.
Columns and labels:
[1] = test system: intact retinas from P12 wild type mice; assay: P12 mouse retinal explant culture, qPCR for rod gene expression; assay type: cell-based; conditions: P12 explants; for dose-response, Nrl, Nr2e3, and Rho expression: 2-3 days; for relative rhodopsin (Rho) expression: 1 μM, 2 days
Source text: To identify functional Nr2e3 antagonists, compounds were cheminformatically searched and structural analogs of a putative Nr2e3 interacting compound with unknown function were collected. See FIGS. 2 and 4 for the structures of the compounds. The collected compounds were then screened in a physiologically relevant primary culture assay using intact retinas from postnatal day 12-13 (P12-13) C57BL/6 mice for suppression of Rho expression (See FIG. 6A). After a 2 day culture period with media containing DMSO or compounds at 1 μM, the retinas were collected and assessed Rho expression by qPCR. Rho was chosen because it is a well-described target of Nr2e3 in rod photoreceptors. […] This analysis also provided an initial structure-activity relationship.
(§1) Nr2e3 loss-of-function mutations lead to a reduction in rod gene expression. To determine whether the same was true for PR1 (FIG. 6D), explant cultures of P12 retina as above were treated and assayed for other rod photoreceptor genes. After 2 days in culture, PR1 decreased the expression of the rod specific genes Nrl, Nr2e3, Rho, Gnat1, and Pde6b compared to DMSO treatment by qPCR analysis (FIG. 6C). […] To determine the dose-response relationship between PR1 concentration and expression of rod genes, retinas from P12 mice were explanted in media containing DMSO or 0.1, 1, 5, or 10 μM PR1 for 2-3 days and assayed Nrl, Nr2e3, and Rho expression by qPCR. […] PR1 was tested to determine whether it could cause a reduction in Rho expression in human rod photoreceptors as well. Pairs of 113 day post-conception retinas were explanted in media with DMSO or 10 μM PR1 for 7 or 23 days. After 7 and 23 days in culture, PR1 decreased the expression of Rho compared to DMSO treatment (FIG. 6F), similar to the effect observed in mouse retinal explants.
(§2) Intact retinas without RPE from mice of various strains and ages as indicated were explanted on 0.4 μm pore tissue culture inserts (Millipore) as previously described (Ueki, Y., et al., P53 is required for the developmental restriction in Muller glial proliferation in mouse retina. Glia, 2012. 60(10): p. 1579-89; Ueki, Y., et al., A transient wave of BMP signaling in the retina is necessary for Muller glial differentiation. Development, 2015. 142(3): p. 533-43. Full media (DMEM/F12 (1:1) containing 1% dialyzed FBS, 1% Pen Strep, 0.3% D+ glucose, 2% B27, and 1% N2) changes were performed every other day and small molecules were used at 0.1 μM to 10 μM. Where indicated, EdU (Invitrogen) was included in the media at 5 μg/mL and visualized by staining with the Click-iT EdU Alexa Fluor kit (Thermo Fisher Scientific). For human retinal explant cultures, tissue from 113 day post-conception fetuses was obtained from the University of Washington Birth Defects Laboratory and explanted on 0.4 μm pore tissue culture inserts (Millipore) in media (Neurobasal A with 1% FBS, 1% Pen Strep, 1% N2, 1% B27) containing 10 μM Photoregulin1 or an equal volume of DMSO.
(§3) RNA was isolated using TRIzol (Invitrogen) and cDNA was synthesized using the iScript cDNA synthesis kit (Bio-Rad) following an intervening DNase treatment with RQ1 RNase-free DNase (Promega). SSO Fast (Bio-Rad) was used for quantitative real-time PCR. For analysis, values were normalized to Gapdh and ΔΔCt between DMSO and compound-treated samples was expressed as percent of DMSO treated controls (100*2^ΔΔCt). Two-way Student's t-tests were performed on ΔCt values.

[2] = test system: Human retinal explants from 113 day post-conception fetuses; assay: Human fetal retinal explant culture, qPCR for RHO expression; assay type: cell-based; conditions: 10 μM, vs DMSO
Procedure: as §1, with “After 7 and 23 days in culture, PR1 decreased the expression of Rho compared to DMSO treatment (FIG. 6F), similar to the effect observed in mouse retinal explants.” left out
as §3, with “Two-way Student's t-tests were performed on ΔCt values.” left out

[3] = test system: Explants from P12 Nrl-eGFP mice; assay: P12 Nrl-eGFP mouse retinal explants, 5 DIV, immunofluorescence and EdU; assay type: cell-based
Procedure: Previous loss of function genetic data has shown that Nr2e3 is required for rod photoreceptor development, but it is not known whether there is a continuing requirement for Nr2e3 in mature rods. […] To further examine the effects of PR1 at these late developmental stages, the effects of PR1 on P12 retinal explants by immunohistochemical analysis were studied (FIG. 8A). Explants from P12 Nrl-eGFP mice were cultured for 5 days in either DMSO or 1 μM PR1 containing media, and then fixed and processed for immunofluorescent labeling with anti-rhodopsin and anti-S opsin antibodies.
To determine if PR1 affects retinal cells other than photoreceptors, bipolar cells (PKCα, Chx10), amacrine cells (HuCD), and Muller glia (Sox2) were quantified in explants treated with DMSO or 1 μM PR1 for 5 DIV. […] EdU (5-ethynyl-2′-deoxyuridine) was added to the cultures to determine whether PR1 might have a similar effect.
as §2
Retinal explants or eyecups were fixed in 4% PFA in 1×PBS for 20 minutes at room temperature and then cryoprotected in 30% sucrose in 1×PBS overnight at 4° C. Samples were embedded in OCT (Sakura Finetek), frozen on dry ice, and then sectioned at 14-16 μm on a cryostat (Leica). Slides were blocked with a solution containing 10% Normal Horse Serum (Vector Labs) and 0.5% Triton X-100 (Sigma-Aldrich) in 1×PBS for 1 hour at room temperature and then stained overnight at 4° C. with primary antibodies diluted in blocking solution. Slides were washed three times with 1×PBS the following day and then incubated in secondary antibodies (Life Technologies) diluted in blocking solution for 2 hours at room temperature, stained with DAPI (Sigma-Aldrich), washed, and coverslipped using Fluoromount-G (SouthernBiotech). An Olympus FluoView FV1000 was used for confocal microscopy.

Thrb (Trβ2) = assay: Cone gene expression, Thrb (FIG. 5)

## Cc1cc(C)cc(NC(=O)CCc2nc3sc4c(c3c(=O)[nH]2)CCCC4)c1 [PR1, N-(3,5-dimethylphenyl)-3-(4-oxo-5,6,7,8-tetrahydro-3H-[1]benzothiolo[2,3-d]pyrimidin-2-yl)propanamide]
[1]; 0.1 uM
  dose-response, Nrl, Nr2e3, and Rho expression: Some effect
[1]; vs DMSO
  relative rhodopsin (Rho) expression: substantially decrease Rho expression; also recorded: decreased
[1]; vs DMSO, listed as CA88
  relative rhodopsin (Rho) expression: reducing rhodopsin expression
[1]; 2 days in culture, vs DMSO
  Crx expression: did not significantly decrease
  Gnat1 expression: decreased
  Gnb1 expression: did not significantly decrease
  Nr2e3 expression: decreased
  Nrl expression: decreased
  Pde6b expression: decreased
[1]; higher concentrations (1, 5, or 10 μM)
  dose-response, Nrl, Nr2e3, and Rho expression: statistically significant reductions
[2]; 7 days in culture
  Rho expression: decreased
[2]; 23 days in culture
  Rho expression: decreased
[3]; P12 explants, 1 μM, 5 days
  number of S opsin+ cells in the ONL: increase in the number of S opsin+ cells
  rhodopsin staining in Nrl-GFP-positive rods: dramatic decrease in rhodopsin staining
[3]; P12 explants, 5 DIV, EdU in media
  number of EdU labeled cells: increase in the number of EdU labeled cells
[3]; explants, 1 μM, 5 DIV
  migration of the Muller glial (Sox2+) nuclei into the ONL: increase in the migration
[3]; explants, 1 μM, 5 DIV, vs DMSO
  bipolar cells (PKCα, Chx10), amacrine cells (HuCD), and Muller glia (Sox2): No differences
Thrb (Trβ2)
  cone gene expression, Thrb (Trβ2): increase
